Reference: patent publication US10407445B2, “Hepatitis C virus inhibitors” (ENANTA PHARMACEUTICALS, INC., priority 2013, dated 2019)
Read-outs that look alike come from different tables or passages of the source.

How the values were obtained:
Assay type in all cases: cell-based
[1] = tested on: GT1a replicon encoding NS5A mutation Y93C; assay: Transient replication assay, GT1a replicon with NS5A mutation Y93C; details: Hepatitis C virus
[2] = tested on: HCV GT 3a replicon; assay: HCV replicon assay, GT2a chimeric replicon expressing NS5A from GT3a strain S52; details: Hepatitis C virus
Experimental: (§1) The activity of compounds was determined against HCV replicons representing genotypes (GT) 1a, 1b, 2a, and 3a. To generate stable Huh-7.5-based cell lines, HCV replicons were engineered to express the Renilla luciferase reporter (hRluc) fused to the neomycin phosphotransferase (Neo) gene. GT2a and GT3a HCV replicons were based on the JFH-1 subgenomic replicon (Kato et al. 2003 Gastroenterology, 125:1808-1817), in which the NS5A gene was replaced with that of strains J6 and S52 (GT2a and G3a, respectively). The activity of compounds against GT1a replicons encoding NS5A mutations (M28T, Q30R, L31M, Y93C, and Y93H) was also determined in a transient replication assay. The parental GT1a and GT2a replicons (pH/SG-Neo(L+I) and pSG-Neo-JFH1, respectively) were licensed from Apath LLC (Saint Louis, Mo.). The parental GT 1b replicon (pFKi389lucubineo_3_3′_ET) was licensed from ReBLikon GmbH (Germany). HCV replicons were constructed by standard molecular biology techniques described below. All replicon constructs were verified by restriction enzyme digestion and DNA sequencing.
(§2) The plasmid pSG-hRlucNeo-JFH1 was generated from pSG-Neo-JFH1 (Kato et al. 2003, Gastroentrology 125:1808-1817). A fragment containing the JFH-1 5′ NTR—hRluc-Neo gene and two unique restriction sites (AgeI and PmeI) was synthesized (Integrated DNA Technologies, Coralville, Iowa). The resulting synthetic plasmid was digested with AgeI and PmeI and the excised fragment (5′NTR-hRluc-Neo) was ligated into pSG-Neo-JFH1 digested with the same enzymes to generate pSG-hRlucNeo-JFH1. To allow expression of heterologous NS5A sequences, an NS5A shuttle vector was generated from pSG-Neo-JFH1, in which the entire coding sequence of NS5A plus the first eight codons of NS5B were replaced with an AfeI restriction site. This was done by Infusion cloning (Clontech, Mountain View, Calif.) from two PCR products that were generated using pSG-Neo-JFH1 as a template and the following primer pairs:
(§3) Underlined sequences denote regions of overlap necessary for Infusion cloning. Purified PCR products were cloned directly into an NsiI/SnaBI digested pSG-Neo-JFH1 following the manufacturer's instructions to generate pSG-Neo-JFH1-5Ashuttle. The 2023 base pair AgeI/PmeI fragment from pSG-hRlucNeo-JFH1 was then ligated into pSG-Neo-JFH1-5Ashuttle to generate pSG-hRlucNeo-JFH1-5Ashuttle. To generate the 2a-2a-(J6) and 2a-3a-(S52) NS5A chimeric replicons, the full length NS5A sequences from GT2a strain J6 (accession AF177036) and GT3a strain S52 (accession GU814263), with the addition of the first eight codons of JFH-1 NS5B (5′-TCCATGTCATACTCCTGGACCGGG-3′), were synthesized by GeneArt (Life Technologies, Carlsbad Calif.). J6 and S52 NS5A sequences were then PCR amplified from the synthetic clones using the appropriate forward primer:
(§4) Underlined sequences denote regions of overlap with pSG-hRlucNeo-JFH1-5Ashuttle necessary for Infusion cloning. Purified PCR products were directly cloned into AfeI-digested shuttle vector by Infusion cloning following the manufacturer's instructions.
(§5) Stable HCV replicon cell lines were grown in complete media (Dulbecco's modified Eagle medium [DMEM], 2 mM L-glutamine, 0.1 mM essential amino acids, 1 mM sodium pyruvate, 10% heat inactivated fetal bovine serum) with the addition 500 μg/ml […] (G418). Huh7-lunet cells were maintained in the same medium without the addition of G418. Cells were routinely passaged at a dilution of 1:4 two times a week. The assay medium for both luciferase reporter HCV replicon and cytotoxicity assays used phenol red-free DMEM and lacked G418. For each stable replicon assay, a sixteen point half-log dilution series of compound was stamped (0.5 ul compound per well) into three replica 384-well plates, to which cells were added directly (4000 cells/well). […]

[3] = tested on: HCV GT 2a-J6 replicon; assay: HCV replicon assay, GT2a chimeric replicon expressing NS5A from GT2a strain J6; details: Hepatitis C virus
Experimental: as §1, §2, §3, §4, §5

[4] = tested on: GT1a replicon encoding NS5A mutation L31V; assay: Transient replication assay, GT1a replicon with NS5A mutation L31V; details: Hepatitis C virus
[5] = tested on: GT1a replicon encoding NS5A mutation Q30R; assay: Transient replication assay, GT1a replicon with NS5A mutation Q30R; details: Hepatitis C virus
[6] = tested on: HCV GT 1b replicon; assay: HCV replicon assay, stable GT 1b replicon (Renilla luciferase); details: Hepatitis C virus, GT1B, 72 h
Experimental: as §1
The hRluc-Neo cassette was PCR amplified from pF9 cytomegalovirus (CMV) hRluc-Neo Flexi(R) (Promega) using Accuprime Super Mix II (Invitrogen) and the following primers, which introduce restriction sites: […]
The amplification product was subcloned into pCR2.1-TOPO (Invitrogen). The resulting plasmid was digested with AscI and NotI, and the excised hRluc-Neo fragment was ligated using the Roche Quick Ligation Kit (Roche) into pFKi389lucubineo_3_3′_ET digested with the same enzymes.
Stable HCV replicon cell lines were grown in complete media (Dulbecco's modified Eagle medium [DMEM], 2 mM L-glutamine, 0.1 mM essential amino acids, 1 mM sodium pyruvate, 10% heat inactivated fetal bovine serum) with the addition 500 μg/ml […] (G418). Huh7-lunet cells were maintained in the same medium without the addition of G418. Cells were routinely passaged at a dilution of 1:4 two times a week. The assay medium for both luciferase reporter HCV replicon and cytotoxicity assays used phenol red-free DMEM and lacked G418. For each stable replicon assay, a sixteen point half-log dilution series of compound was stamped (0.5 ul compound per well) into three replica 384-well plates, to which cells were added directly (4000 cells/well). For the transient replication assay, Huh7-lunet cells in ice-cold phosphate buffered saline (PBS) were electroporated (BioRad electroporator; 950 uF, 270V) with 10 ug purified in vitro transcribed HCV replicon RNA, followed by resuspension in complete media and plating (8000 cells/well) into compound stamped 384-well plates. Luciferase activity of compound-treated cells was measured relative to DMSO-treated cells after 72 h incubation using RENILLA-GLO™ Luciferase Assay (Promega). Cytotoxicity (CC50) in the GT1b replicon cell line was analyzed using CELL TITER-GLO™ (Promega).
The compounds of the present invention can be effective against the HCV 1b genotype. It should also be understood that the compounds of the present invention can inhibit multiple genotypes of HCV. In one embodiment compound of the present invention are active against the 1a, 1b, 2a, 2b, 3a, 4a, and 5a genotypes. In another embodiment compound of the present invention are active against the HCV resistant mutants. […] EC50s are in pM against HCV GT 1a and GT 1b; and nM against GT 2a-J6, GT 3a and GT1a resistant variants (M28T, Q30R, L31V, Y93C and Y93H).

| SMILES | EC50 ([1]; read-out: EC50 1a Y93C) | EC50 ([2]; 72 h, read-out: EC50 3a) | EC50 ([3]; 72 h, read-out: EC50 2a J6) | EC50 ([4]; read-out: EC50 1a L31V) | EC50 ([5]; read-out: EC50 1a Q30R) | EC50 [6] | EC50 ([1]; read-out: EC50 (nM) 1a Y93C) | EC50 ([2]; read-out: EC50 (nM) 3a) | EC50 ([3]; read-out: EC50 (nM) 2a-J6) | EC50 ([4]; read-out: EC50 (nM) 1a L31V) | EC50 ([5]; read-out: EC50 (nM) 1a Q30R) |
| --- | --- | --- | --- | --- | --- | --- | --- | --- | --- | --- | --- |
| COC(=O)N[C@H](C(=O)N1[C@H](c2nc3ccc4cc(-c5ccc(-c6cnc([C@@H]7C[C@@]8(CCCOC8)CN7C(=O)[C@@H](NC(=O)OC)C7C[C@@H](C)O[C@H](C)C7)[nH]6)cc5)ccc4c3[nH]2)C[C@@H]2CCCC[C@@H]21)C(C)C (stereo in doubt) [Compound 38] | 0.004 nM | 0.07 nM | 0.09 nM | 0.002 nM | 0.002 nM | 0.015 nM | – | – | – | – | – |
| COC(=O)N[C@H](C(=O)N1[C@H](c2nc3ccc4cc(-c5ccc(-c6cnc([C@@H]7C[C@@]8(CCCOC8)CN7C(=O)[C@H](NC(=O)OC)C7C[C@@H](C)O[C@H](C)C7)[nH]6)cc5)ccc4c3[nH]2)C[C@@H]2CCCC[C@@H]21)C(C)C (stereo in doubt) [Compound 39] | 4 nM | 48 nM | 41 nM | 4 nM | 0.05 nM | 0.029 nM | – | – | – | – | – |
| COC(=O)N[C@H](C(=O)N1C[C@]2(CCCOC2)C[C@H]1c1nc2ccc3cc(-c4ccc(-c5cnc([C@@H]6C[C@H]7C[C@H]7N6C(=O)[C@@H](NC(=O)OC)C(C)C)[nH]5)cc4)ccc3c2[nH]1)C(C)C [Compound 5] | 0.06 nM | 0.5 nM | 3 nM | 0.1 nM | 0.05 nM | 0.011 nM | – | – | – | – | – |
| COC(=O)N[C@H](C(=O)N1C[C@]2(CCCOC2)C[C@H]1c1nc2ccc3cc(-c4ccc5c(ccc6nc([C@@H]7C[C@H]8C[C@H]8N7C(=O)[C@@H](NC(=O)OC)C(C)C)[nH]c65)c4)ccc3c2[nH]1)C(C)C [Compound 6] | 0.02 nM | 0.08 nM | 0.07 nM | 0.2 nM | 0.04 nM | 0.012 nM | – | – | – | – | – |
| COC(=O)N[C@H](C(=O)N1CC2(CC2)C[C@H]1c1nc2ccc3cc(-c4ccc5c(ccc6nc([C@@H]7C[C@@]8(CCCOC8)CN7C(=O)[C@@H](NC(=O)OC)C(C)C)[nH]c65)c4)ccc3c2[nH]1)C(C)C [Compound 7] | 0.02 nM | 0.05 nM | 0.3 nM | 0.1 nM | 0.03 nM | 0.012 nM | – | – | – | – | – |
| COC(=O)N[C@H](C(=O)N1CC2(CC2)C[C@H]1c1ncc(-c2ccc(-c3ccc4c(ccc5nc([C@@H]6C[C@@]7(CCCOC7)CN6C(=O)[C@@H](NC(=O)OC)C(C)C)[nH]c54)c3)cc2)[nH]1)C(C)C [Compound 8] | 0.1 nM | 0.9 nM | 8 nM | 0.2 nM | 0.1 nM | 0.01 nM | – | – | – | – | – |
| COC(=O)N[C@H](C(=O)N1C[C@]2(CCCOC2)C[C@H]1c1nc2ccc3cc(-c4ccc5c(ccc6nc([C@@H]7C[C@@H]8CCC[C@@H]8N7C(=O)[C@@H](NC(=O)OC)C(C)C)[nH]c65)c4)ccc3c2[nH]1)C(C)C [Compound 9] | 0.03 nM | 0.06 nM | 0.04 nM | 0.07 nM | 0.01 nM | 0.006 nM | – | – | – | – | – |
| COC(=O)N[C@H](C(=O)N1C[C@]2(CCCOC2)C[C@H]1c1nc2ccc3cc(-c4ccc(-c5cnc([C@@H]6C[C@@H]7CCC[C@@H]7N6C(=O)[C@@H](NC(=O)OC)C(C)C)[nH]5)cc4)ccc3c2[nH]1)C(C)C [Compound 10] | 0.2 nM | 0.2 nM | 0.2 nM | 0.05 nM | 0.02 nM | 0.005 nM | – | – | – | – | – |
| COC(=O)N[C@H](C(=O)N1C[C@]2(CCCOC2)C[C@H]1c1ncc(-c2ccc(-c3ccc4c(ccc5nc([C@@H]6C[C@@]7(CCCOC7)CN6C(=O)[C@@H](NC(=O)OC)C(C)C)[nH]c54)c3)cc2)[nH]1)C(C)C [Compound 11] | 0.07 nM | 0.4 nM | 2 nM | 0.08 nM | 0.05 nM | 0.052 nM | – | – | – | – | – |
| COC(=O)N[C@H](C(=O)N1C[C@]2(CCCOC2)C[C@H]1c1ncc(-c2ccc3cc4cc(-c5cnc([C@@H]6C[C@@H]7CCCC[C@@H]7N6C(=O)[C@@H](NC(=O)OC)C(C)C)[nH]5)ccc4cc3c2)[nH]1)C(C)C [Compound 13] | 0.3 nM | 0.9 nM | 17 nM | 0.8 nM | 0.01 nM | 0.021 nM | – | – | – | – | – |
| COC(=O)N[C@H](C(=O)N1C[C@]2(CCCOC2)C[C@H]1c1ncc(-c2ccc(-c3ccc4c(ccc5nc([C@@H]6CCCN6C(=O)[C@@H](NC(=O)OC)C(C)C)[nH]c54)c3)cc2)[nH]1)C(C)C [drawing 233] | – | – | – | – | – | – | 0.3 nM | 0.08 nM | 0.6 nM | 1 nM | 0.1 nM |
